According to patent US10391201B2, “Gene therapy” (Ospedale San Raffaele S.r.l., priority 2014, dated 2019):

What was measured:
Murine Lin− HSPC = assay: SINLV-GFP transduction of murine Lin- HSPC; format: cell-based; settings: MOI 1, 10 μM CsA, 10 μg/ml Rapamycin or combination (FIG. 29A)
Protocol: The percentage of GFP+ cells was evaluated by FACS 5 days post-transduction. Data are the mean±SEM of three independent experiments for HSPC and three independent transductions for CD4+ T cells. p values are for One way ANOVA with Bonferroni's multiple comparison.

[1] = test system: monocyte-derived macrophages (MDM); assay: SINLV-GFP lentiviral transduction of monocyte-derived macrophages; format: cell-based, human; settings: MOI 1, 10 μM CsA or 10 μg/mL rapamycin, FACS 5 days
Protocol: CD4^+ T cells were activated in RPMI, supplemented with 10% FBS, penicillin (100 IU/mL), streptomycin (100 μg/mL), 2% glutamine, phytohaemagglutanin (PHA) (2 μg/mL, Roche) and IL-2 (300 IU/mL, Novartis) for three days and maintained in RPMI supplemented with 10% FBS, penicillin (100 IU/mL), streptomycin (100 μg/mL), 2% glutamine and IL-2 (300 UI/mL). Monocyte-derived macrophages (MDM) were differentiated from isolated CD14^+ monocytes in DMEM supplemented with 10% FBS, penicillin (100 IU/mL), streptomycin (100 μg/mL), 2% glutamine and 5% human serum AB (Lonza) for seven days.
(§1) Human CB and BM-derived haematopoietic stem/progenitor cells (HSPC) were cultured in serum-free StemSpan medium (StemCell Technologies) supplemented with 100 ng/mL recombinant human stem cell factor (rhSCF), 20 ng/mL recombinant human thrombopoietin (rhTPO), 100 ng/mL recombinant human Flt3 ligand (rhFlt3) and 20 ng/mL recombinant human IL6 (rhIL6) (all from Peprotech) 16 to 24 hours prior to transduction. […] After transduction, cells were washed and maintained serum-free StemSpan supplemented with cytokines as above until the reading of GFP-positive (GFP+) cells by FACS. […]
GFP expression in transduced cells was measured 5-7 days post-transduction. […]

[2] = test system: Human cord blood-derived CD34+ cells transplanted in NSG mice; assay: Transplantation of transduced human HSPC in NSG mice; format: in vivo, NOD-SCID-IL2Rg−/− (NSG) mice
Protocol: NOD-SCID-IL2Rg−/− (NSG) mice were purchased from Jackson laboratory. All animal procedures were performed according to protocols approved by the Animal Care and Use Committee of the Ospedale San Raffaele (IACUC 661) and communicated to the Ministry of Health and local authorities according to Italian law. […] After transduction, 1.3×10^5 cells were infused into the tail vein of sublethally irradiated 10-week-old NSG mice (radiation dose: 200 cGy for mice weighing 18-25 g and 220 cGy for mice above 25 g of weight). Transduced and untransduced cells were also cultured in vitro for 14 days for further analysis. In vitro cultured cells and BM cells isolated from transplanted mice at the time of sacrifice were then used to quantify the VCN by qPCR.
For each mouse, 250 μL of peripheral blood were added to 15 μL of PBS containing 45 mg/mL EDTA. For immunostaining, a known volume of whole blood (100 μL) was first incubated with anti-human FcγIII/II receptor (Cd16/Cd32) blocking antibodies for 15 min at 4° C. and then incubated in the presence of monoclonal antibodies (for antibodies, see Table 1) for 20 min at 4° C. Erythrocytes were removed by lysis with the TQ-Prep workstation (Beckman-Coulter) in the presence of an equal volume of FBS (100 μL) to protect white blood cells.
BM cells were obtained by flushing the femurs in PBS 2% FBS solution. Cells (1×10^6 cells) were washed, resuspended in 100 μL of PBS containing 2% FBS, and incubated with anti-human receptor (Cd16/Cd32) blocking antibodies for 15 min at 4° C. Staining was then performed with monoclonal antibodies (for antibodies, see Table 1) for 20 min at 4° C. Cells were washed and finally resuspended in PBS containing 2% FBS.
Spleens were first smashed and the resulting cell suspension was passed through 40 μm nylon filter and washed in cold phosphate buffered saline (PBS) containing 2 mM EDTA and 0.5% bovine serum albumin (BSA). Cells were incubated with anti-human receptor (Cd16/Cd32) blocking antibodies for 15 min at 4° C. and then stained with anti-human monoclonal antibodies (for antibodies, see Table 1) for 20 min at 4° C. Cells were finally washed and resuspended in PBS containing 2% FBS.

BM-derived CD34+ cells = assay: γ-retroviral SINRV-GFP transduction of BM-derived CD34+ cells; format: cell-based, human; settings: BM-derived HSPC; MOI of 10 (FIG. 24)
Protocol: A, B. The percentage of GFP+ cells was evaluated by FACS five days after transduction. Data represent the mean±SEM of four independent experiments.
Third generation lentivirus (LV) stocks were prepared, concentrated and titred as previously described (Dull, T. et al. (1998) J. Virol. 72: 8463-71; Follenzi, A. et al. (2000) Nat. Genetics 25: 217-22). […]. Bald vector, a normal LV produced by omitting the Env-encoding plasmid during vector production, was produced as a negative control. During vector production, the Env construct was substituted by pcDNA3.1 (Invitrogen Inc.). […]
as §1

CO[C@H]1C[C@@H]2CC[C@@H](C)[C@@](O)(O2)C(=O)C(=O)N2CCCC[C@H]2C(=O)O[C@H]([C@H](C)C[C@@H]2CC[C@@H](O)[C@H](OC)C2)CC(=O)[C@H](C)/C=C(\C)[C@@H](O)[C@@H](OC)C(=O)[C@H](C)C[C@H](C)/C=C/C=C/C=C/1C [rapamycin, Rapamycin]
transduction (percentage of GFP+ cells) (Murine Lin− HSPC): significantly improved transduction | decrease in GFP+ cells (transduction) [1]: 2.8 fold | overall percentage of GFP+ cells in the spleen ([2]; 20 weeks post-transplant (FIG. 22H), DMSO 49.0±5): 80.8±1% | GFP+/hCD45+ cells in peripheral blood ([2]; NSG mice, 11 weeks after transplant (FIG. 22C), DMSO 48±6): 78±2% | VCN in the BM cells ([2]; NSG mice, 20 weeks post-transplant, DMSO 0.9±0.2): 3.6±0.4 | levels of engraftment in the BM with respect to controls (in words) ([2]; NSG mice, 20 weeks post-transplant, p<0.047 v. DMSO): modest but statistically significant increase | percentage of GFP+ cells with γ-retroviral SINRV (BM-derived CD34+ cells): neither compound was able to significantly increase
